From US20060014699A1, “Aqueous pharmaceutical formulaton comprising the thrombin inhibitor melagatran and use of the formulation in the manufacture of a medicament for use by nasal administration in treating thromboembolism” (AstraZeneca AB, priority 2002, published 2006) come the findings set out here.

Broadly, the bioavailability is the share of a dose that reaches the circulation, judged against a reference dose that is usually intravenous.

The nature of data set [1]: Rate and extent of absorption after intranasal administration to healthy male subjects. It counts as in vivo, human. To be noted: healthy male humans; for bioavailability: male, human, plasma, inhaled or intranasal. On the procedure: (§1) The rate and extent of absorption of melagatran as well as the safety and tolerability were investigated after intranasal administration to six healthy male subjects (between 20 and 40 years of age, body weight between 66 and 86 kg). The trial comprised three study days, separated by wash-out periods of 6-28 days. On study day 1, a single dose of 5 mg of melagatran was administered. The following two study days 10 mg and 20 mg, respectively, were administered.
(§2) Samples for determination of plasma concentration of melagatran (by LC-MS) and for degree of anticoagulation were collected before and up to 10 hours after drug administration. Safety measurements included blood pressure, heart rate and recording of adverse events.
(§3) The safety and tolerability of melagatran when administered nasally were considered satisfactory.

Data set [2] in a line: Safety and tolerability after intranasal administration to healthy male subjects. The following applies: healthy male humans, nasal administration, 5, 10 and 20 mg; blood pressure, heart rate, adverse events. It counts as in vivo, human. The protocol:
as §1, §2, §3

Data set [3] is described as follows: Bioavailability of intranasal melagatran in rats, with and without absorption enhancers. It counts as in vivo. The following applies: rat, inhaled or intranasal. On the procedure: Using standard techniques, melagatran was administered to rats in formulations with and without the enhancers SDS (sodium dodecyl sulfate) or EDTA. The bioavailability was measured by analysis of blood plasma samples using standrad techniques.

Some results are limits rather than exact numbers.

With `N=C(N)c1ccc(CNC(=O)[C@@H]2CCN2C(=O)[C@H](NCC(=O)O)C2CCCCC2)cc1` [melagatran, HOOC—CH2—(R)-Cgl-Aze-Pab], the “dose dependence of rate or extent of absorption” value in data set [1] (intranasal, 5, 10 and 20 mg) is “no indication of a dose dependent rate or extent of absorption”. Also, in data set [1] (intranasal, 5-20 mg), the “absorption after intranasal administration (rate)” value is on record as “rapid”. In addition, the bioavailability was 19% in data set [1] (5 mg, intranasal, single dose 5 mg, six subjects, read-out: median bioavailability); 12% in data set [1] (10 mg, intranasal, single dose 10 mg, six subjects, read-out: median bioavailability); 7 to 45% in data set [1] (20 mg, intranasal, 5, 10 and 20 mg, read-out: bioavailability, range over the six subjects at the three doses); 19% in data set [1] (20 mg, intranasal, single dose 20 mg, six subjects, read-out: median bioavailability); roughly 10% in data set [3] (20 umol/kg, melagatran alone (no enhancer), blood plasma samples, read-out: bioavailability); no more than 19% in data set [3] (plasma, 20 μmol/kg, formulations with enhancers SDS or EDTA, read-out: bioavailability with enhancers). The safety and tolerability result in data set [2] is “satisfactory”.
